We go through 60 compounds from PubChem BioAssay AID720592 (Broad Institute, 2013).

The test addresses BioA (adenosylmethionine-8-amino-7-oxononanoate aminotransferase), Mycobacterium tuberculosis. As to the kind of experiment: Mtb BioA aminotransferase inhibitors, dose response, biochemical, plate reader, dry powder samples (AID 720592). The conditions noted are these: purified Mtb BioA enzyme, plate reader activity; for inhibition: at 10 µM (top of the series).

Active and inactive are the calls of the source. How the calls were made is not given here.

With `CC(C)(C)c1ccc(C(=O)N2CCN(c3ccc4c(c3)OCO4)CC2)cc1`, the inhibition result was “inactive”. As for `CCc1ccc(N2CCN(C(=O)c3ccc4c(c3)OCO4)CC2)cc1`, the inhibition result was “inactive”.

As for `O=C(Nc1ccc(Cl)c(-c2nc3ccccc3[nH]2)c1)c1cccnc1`, the inhibition result was “inactive”. The same measure, in the same setting: the entry for `O=C(Nc1ccc2snnc2c1)N1CCOCC1` is “inactive”. The AC50 is the midpoint of the concentration-response curve, whichever way the signal moves. Consider `CC(=O)c1ccc(N2CCN(C(=O)c3cccc(Cl)c3)CC2)cc1`, for which the AC50 was > 20 µM (inactive). Regarding `CC(=O)c1ccc(N2CCN(C(=O)c3ccc4c(c3)OCCO4)CC2)cc1`, the inhibition result was “inactive”.

As for `O=C(O)CC/C(=C\c1ccccc1[N+](=O)[O-])c1nc2ccccc2s1`, the inhibition result is “inactive”.

With `CC(=O)c1ccc(N2CCN(C(=O)c3ccccc3)CC2)cc1`, the inhibition entry is “inactive”. Same read-out and setting: the entry for `CC(=O)c1ccc(N2CCN(C(=O)c3ccc(Cl)cc3)CC2)cc1` is “inactive”. With `Cc1ccc(/C=C(\CCC(=O)O)c2nc3ccccc3s2)cc1[N+](=O)[O-]`, the inhibition entry was “inactive”. The same measure, in the same setting: the entry for `O=C(Nc1cccnc1)c1cnn2c(C(F)F)cc(C3CC3)nc12` is “inactive”; for `Cc1ccc(/C=C(\CCC(=O)O)c2nc3ccccc3s2)cc1` it is “inactive”; for `CC(=O)c1ccc(N2CCN(C(=O)c3cccnc3)CC2)cc1` it is “inactive”. Same read-out and setting: in the case of `O=C(Nc1cccc(Cl)c1)N1CCN(c2ccccc2)CC1` it was “inactive”. Same read-out and setting: in the case of `CC(=O)c1ccc(N2CCN(C(=O)c3ccc4c(c3)OCO4)CC2)cc1` it was “inactive”. `COc1ccc(N2CCN(C(=O)c3ccc4c(c3)OCO4)CC2)cc1`: the inhibition result was “inactive”. `CCOC(=O)N1CCN(C(=O)Nc2ccc3snnc3c2)CC1`: the inhibition entry is “inactive”. Same read-out and setting: the entry for `O=C(c1ccc2c(c1)OCO2)N1CCN(c2ccc(F)cc2)CC1` is “inactive”; for `Cc1nc2cc(NC(=O)N3CCN(c4ccccc4)CC3)ccc2o1` it is “inactive”; for `O=C(Nc1ccc(Cl)cc1)c1cc2nc(C3CC3)cc(C(F)(F)F)n2n1` it is “inactive”.

On to `O=C(c1ccc2c(c1)OCO2)N1CCN(c2ccccc2)CC1`, for which the inhibition entry is “inactive”.

As to `COC(=O)c1c(C(=O)OC)c(-c2cccc(F)c2)n2c1CS(=O)C2` (stereo not given), the inhibition result is “inactive”. On the same count and under the same terms, in the case of `CC(=O)c1ccc(N2CCN(C(=O)c3cccc(F)c3)CC2)cc1` it was “inactive”; in that of `COc1cccc(NC(=O)CCC2CCN(C(=O)c3ccc(C(C)=O)s3)CC2)c1`, “inactive”.

Turning to `Cc1nc2ccc(NC(=O)N3CCN(c4ccccc4)CC3)cc2s1`, the inhibition result is “inactive”. On the same count and under the same terms, the entry for `COc1cccc(C(=O)N2CCN(c3ccc(C(C)=O)cc3)CC2)c1` is “inactive”; for `CC(=O)c1ccc(N2CCN(C(=O)c3ccc(Br)cc3)CC2)c(F)c1` it is “inactive”. `O=C(Nc1ccc(F)cc1)N1CCN(c2ccccc2)CC1`: the AC50 is > 20 µM (inactive). Regarding `COc1cccc(NC(=O)N2CCN(c3ccccc3)CC2)c1`, the inhibition result was “inactive”. Regarding `O=C(Nc1ccncc1)c1cc2nc(C3CC3)cc(C(F)F)n2n1`, the inhibition result was “inactive”.

Take `O=C(Nc1cccc(F)c1)N1CCN(c2ccccc2)CC1`: the inhibition result is “inactive”. Same read-out and setting: in the case of `CCc1ccc(C(=O)N2CCN(Cc3ccc4c(c3)OCO4)CC2)cc1` it was “inactive”; in that of `O=C(Nc1ccccc1)N1CCN(c2ccccc2)CC1`, “inactive”; in that of `Cc1ccc(NC(=O)N2CCN(c3ccccc3)CC2)cc1`, “inactive”. In the case of `O=C(O)CC/C(=C\c1ccc([N+](=O)[O-])cc1)c1nc2ccccc2s1`, the inhibition result is “inactive”. Still for that read-out and setting: in the case of `O=C(Nc1ccc2snnc2c1)N1CCCCC1` it was “inactive”.

In the case of `O=C(Nc1cccnc1)c1cnn2c(C(F)(F)F)cc(-c3ccccc3)nc12`, the AC50 was > 20 µM (inactive).

On to `COc1ccc(-c2cc(C(F)(F)F)n3nc(C(=O)Nc4cccnc4)cc3n2)cc1`, for which the inhibition result was “inactive”. Turning to `CC(=O)c1ccc(N2CCN(Cc3ccc4c(c3)OCO4)CC2)cc1`, the inhibition entry was “inactive”. For the compound `Cc1cc(C)n2nc(C(=O)Nc3cccnc3)nc2n1`, the AC50 was > 20 µM (inactive). As for `Cc1ccc(-c2cc(C(F)(F)F)n3nc(C(=O)Nc4cccnc4)cc3n2)cc1`, the inhibition result is “inactive”. The same measure, in the same setting: the entry for `O=C(Nc1cccnc1)c1cc2nc(-c3cccs3)cc(C(F)(F)F)n2n1` is “inactive”. `Cc1ccccc1/C=C(\CCC(=O)O)c1nc2ccccc2s1`: the AC50 is > 20 µM (inactive).

In the case of `O=C(c1ccc2c(c1)OCO2)N1CCN(Cc2ccccc2)CC1`, the inhibition entry was “inactive”.

Turning to `Cc1ccc(/C=C(\CCCC(=O)O)c2nc3ccccc3s2)cc1[N+](=O)[O-]`, the inhibition result was “inactive”. Consider `O=C(Nc1cccnc1)N1CCN(c2ccccc2)CC1`, for which the inhibition entry is “inactive”. For `COc1ccc(NC(=O)N2CCN(c3ccccc3)CC2)cc1`, the AC50 is > 20 µM (inactive). For the compound `CC(=O)c1ccc(N2CCN(C(=O)c3ccc(C)cc3)CC2)cc1`, the inhibition entry is “inactive”. The same measure, in the same setting: in the case of `Cc1ccc(/C=C(\CC(=O)O)c2nc3ccccc3s2)cc1[N+](=O)[O-]` it was “inactive”; in that of `CCN(CC)c1ccc2cc(C(=O)c3cccs3)c(=O)oc2c1`, “inactive”. For `COc1ccc(C(=O)N2CCN(c3ccc(C(C)=O)cc3)CC2)cc1`, the AC50 was > 20 µM (inactive). Take `O=C(COc1ccc2ccc(=O)oc2c1)N1CCN(c2ccc(F)cc2)CC1`: the inhibition result was “inactive”. As for `Cc1cccc(/C=C(\CCC(=O)O)c2nc3ccccc3s2)c1`, the inhibition result is “inactive”. On the same count and under the same terms, in the case of `Cc1cc(C)n2nc(C(=O)Nc3cccnc3)cc2n1` it was “inactive”. `CC(=O)c1ccc(N2CCN(C(=O)c3ccc(F)cc3)CC2)cc1`: the inhibition result is “inactive”.

Regarding `O=C(c1ccc2c(c1)OCO2)N1CCN(c2ccc(Cl)cc2)CC1`, the AC50 was > 20 µM (inactive). As for `O=C(Nc1ccc2snnc2c1)N1CCN(c2ccccc2)CC1`, the inhibition entry is “inactive”. Same read-out and setting: the entry for `O=C(Nc1ccc2[nH]ccc2c1)N1CCN(c2ccccc2)CC1` is “inactive”; for `CC(=O)c1ccc(N2CCN(C(=O)c3ccc4ncsc4c3)CC2)cc1` it is “inactive”; for `COc1cc(/C=C/C(=O)Nc2cccnc2)cc(OC)c1OC` it is “inactive”.
